From the supplement of paper PMC10307832

How the values were obtained:
Assay in all cases: relative viability (nuclei count vs DMSO), 5 days (fraction); higher = more cells survive
NCI-H1563 = test system: NCI-H1563
How it was run: (§1)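 Dosing by pin tool came one day after lung cancer cell lines were seeded in 1536-well plates, using either one drug or a fixed anchor-drug dose plus five library-drug doses (not always all listed) in √10 steps. After 5 days, nuclei were counted on 4× images. Relative viability is treated-well nuclei count divided by vehicle-well nuclei count, and values are medians of duplicate plates.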

H3255 = test system: H3255
How it was run: as §1

NCI-H1993 = test system: NCI-H1993
How it was run: as §1

201T = test system: 201T
How it was run: as §1

NCI-H2085 = test system: NCI-H2085
How it was run: as §1

NCI-H1650 = test system: NCI-H1650
How it was run: as §1

EPLC-272H = test system: EPLC-272H
How it was run: as §1

LOU-NH91 = test system: LOU-NH91
How it was run: as §1

NCI-H2170 = test system: NCI-H2170
How it was run: as §1

RERF-LC-KJ = test system: RERF-LC-KJ
How it was run: as §1

PC-14 = test system: PC-14
How it was run: as §1

HCC-44 = test system: HCC-44
How it was run: as §1

NCI-H520 = test system: NCI-H520
How it was run: as §1

NCI-H647 = test system: NCI-H647
How it was run: as §1

NCI-H2023 = test system: NCI-H2023
How it was run: as §1

NCI-H1734 = test system: NCI-H1734
How it was run: as §1

NCI-H2347 = test system: NCI-H2347
How it was run: as §1

NCI-H3122 = test system: NCI-H3122
How it was run: as §1

NCI-H2405 = test system: NCI-H2405
How it was run: as §1

NCI-H1793 = test system: NCI-H1793
How it was run: as §1

NCI-H441 = test system: NCI-H441
How it was run: as §1

COR-L23 = test system: COR-L23
How it was run: as §1

`Oc1nc(-c2ccc(C(F)(F)F)cc2)nc2c1CSCC2` [XAV939] + CS(=O)(=O)N1CCN(Cc2cc3nc(-c4cccc5[nH]ncc45)nc(N4CCOCC4)c3s2)CC1 [Pictilisib] (partner 1 µM) showed a relative viability (NCI-H1563; first compound 0.08 µM) of 0.645, a relative viability (NCI-H1563; first compound 0.253 µM) of 0.656 and a relative viability (NCI-H1563; first compound 0.8 µM) of 0.605. For the same compound, the relative viability (NCI-H1563; first compound 2.53 µM) was 0.611, the relative viability (H3255; first compound 0.08 µM) was 0.486 and the relative viability (H3255; first compound 0.253 µM) was 0.374. For the same compound, the relative viability (H3255; first compound 0.8 µM) was 0.499, the relative viability (H3255; first compound 2.53 µM) was 0.288 and the relative viability (NCI-H1993; first compound 0.8 µM) was 0.911. It also gave a relative viability (NCI-H1993; first compound 2.53 µM) of 0.7, a relative viability (201T; first compound 0.08 µM) of 0.673 and a relative viability (201T; first compound 0.253 µM) of 0.593. It also gave a relative viability (201T; first compound 0.8 µM) of 0.583, a relative viability (201T; first compound 2.53 µM) of 0.525 and a relative viability (NCI-H2085; first compound 0.08 µM) of 0.388. It also gave a relative viability (NCI-H2085; first compound 0.253 µM) of 0.412, a relative viability (NCI-H2085; first compound 0.8 µM) of 0.445 and a relative viability (NCI-H2085; first compound 2.53 µM) of 0.355. For the same compound, the relative viability (NCI-H1650; first compound 0.08 µM) was 0.587, the relative viability (NCI-H1650; first compound 0.253 µM) was 0.615 and the relative viability (NCI-H1650; first compound 0.8 µM) was 0.49. For the same compound, the relative viability (NCI-H1650; first compound 2.53 µM) was 0.394, the relative viability (EPLC-272H; first compound 0.08 µM) was 0.347 and the relative viability (EPLC-272H; first compound 0.253 µM) was 0.36. The relative viability (EPLC-272H; first compound 0.8 µM) was 0.302, the relative viability (EPLC-272H; first compound 2.53 µM) was 0.323 and the relative viability (LOU-NH91; first compound 0.08 µM) was 0.498. The relative viability (LOU-NH91; first compound 0.253 µM) was 0.471, the relative viability (LOU-NH91; first compound 0.8 µM) was 0.509 and the relative viability (LOU-NH91; first compound 2.53 µM) was 0.504. For the same compound, the relative viability (NCI-H2170; first compound 0.08 µM) was 0.298, the relative viability (NCI-H2170; first compound 0.253 µM) was 0.277 and the relative viability (NCI-H2170; first compound 0.8 µM) was 0.269. For the same compound, the relative viability (NCI-H2170; first compound 2.53 µM) was 0.26, the relative viability (RERF-LC-KJ; first compound 0.08 µM) was 0.61 and the relative viability (RERF-LC-KJ; first compound 0.253 µM) was 0.457. It also gave a relative viability (RERF-LC-KJ; first compound 0.8 µM) of 0.419, a relative viability (RERF-LC-KJ; first compound 2.53 µM) of 0.366 and a relative viability (PC-14; first compound 0.08 µM) of 0.859. It also gave a relative viability (PC-14; first compound 0.253 µM) of 0.662, a relative viability (PC-14; first compound 0.8 µM) of 0.767 and a relative viability (PC-14; first compound 2.53 µM) of 0.386. For the same compound, the relative viability (HCC-44; first compound 0.08 µM) was 0.748, the relative viability (HCC-44; first compound 0.253 µM) was 0.627 and the relative viability (HCC-44; first compound 0.8 µM) was 0.577. It also gave a relative viability (HCC-44; first compound 2.53 µM) of 0.636, a relative viability (NCI-H520; first compound 0.08 µM) of 0.24 and a relative viability (NCI-H520; first compound 0.253 µM) of 0.251. It also gave a relative viability (NCI-H520; first compound 0.8 µM) of 0.236, a relative viability (NCI-H520; first compound 2.53 µM) of 0.227 and a relative viability (NCI-H647; first compound 0.08 µM) of 0.471. It also gave a relative viability (NCI-H647; first compound 0.253 µM) of 0.378, a relative viability (NCI-H647; first compound 0.8 µM) of 0.381 and a relative viability (NCI-H647; first compound 2.53 µM) of 0.51. It also gave a relative viability (NCI-H2023; first compound 0.08 µM) of 0.177, a relative viability (NCI-H2023; first compound 0.253 µM) of 0.187 and a relative viability (NCI-H2023; first compound 0.8 µM) of 0.176. For the same compound, the relative viability (NCI-H2023; first compound 2.53 µM) was 0.158, the relative viability (NCI-H1734; first compound 0.08 µM) was 0.488 and the relative viability (NCI-H1734; first compound 0.253 µM) was 0.418. The relative viability (NCI-H1734; first compound 0.8 µM) was 0.371, the relative viability (NCI-H1734; first compound 2.53 µM) was 0.383 and the relative viability (NCI-H2347; first compound 0.08 µM) was 0.681. For the same compound, the relative viability (NCI-H2347; first compound 0.253 µM) was 0.636, the relative viability (NCI-H2347; first compound 0.8 µM) was 0.418 and the relative viability (NCI-H2347; first compound 2.53 µM) was 0.523. It also gave a relative viability (NCI-H3122; first compound 0.08 µM) of 0.667, a relative viability (NCI-H3122; first compound 0.253 µM) of 0.533 and a relative viability (NCI-H3122; first compound 0.8 µM) of 0.568. For the same compound, the relative viability (NCI-H3122; first compound 2.53 µM) was 0.381, the relative viability (NCI-H2405; first compound 0.08 µM) was 0.502 and the relative viability (NCI-H2405; first compound 0.253 µM) was 0.526. For the same compound, the relative viability (NCI-H2405; first compound 0.8 µM) was 0.416, the relative viability (NCI-H2405; first compound 2.53 µM) was 0.378 and the relative viability (NCI-H1793; first compound 0.08 µM) was 0.344. The relative viability (NCI-H1793; first compound 0.253 µM) was 0.308, the relative viability (NCI-H1793; first compound 0.8 µM) was 0.308 and the relative viability (NCI-H1793; first compound 2.53 µM) was 0.363. For the same compound, the relative viability (NCI-H441; first compound 0.08 µM) was 0.605, the relative viability (NCI-H441; first compound 0.253 µM) was 0.461 and the relative viability (NCI-H441; first compound 0.8 µM) was 0.517. For the same compound, the relative viability (NCI-H441; first compound 2.53 µM) was 0.603, the relative viability (COR-L23; first compound 0.08 µM) was 1.05 and the relative viability (COR-L23; first compound 0.253 µM) was 0.768. The relative viability (COR-L23; first compound 0.8 µM) was 0.757 and the relative viability (COR-L23; first compound 2.53 µM) was 0.564.
